Results reported in ChEMBL document CHEMBL1201862, “PubChem BioAssay data set” (2004).
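The compound was tested at five concentrations on cells cultured in 96-well plates, with a 48-hour exposure period. Abbreviation: GI50, concentration required for 50% inhibition of growth.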 Activity calls are given as the source filed them. No stated cut-off is given here; in the data, active = GI50 up to about 1.1 µM and inactive = higher.

Tests used:
Assay in all cases: DTP human tumour cell line panel, 48 h
ACHN = system: ACHN
COLO 205 = system: COLO 205
NCI-H23 = system: NCI-H23
HOP-18 = system: HOP-18
SF-539 = system: SF-539
NCI-H522 = system: NCI-H522
Malme-3M = system: Malme-3M
RPMI-8226 = system: RPMI-8226
HL-60 = system: HL-60
HOP-62 = system: HOP-62
SNB-19 = system: SNB-19
KM12 = system: KM12
A549 = system: A549
HCC 2998 = system: HCC 2998
LXFL 529 = system: LXFL 529
DMS-273 = system: DMS-273
DMS-114 = system: DMS-114
OVCAR-5 = system: OVCAR-5
LOX IMVI = system: LOX IMVI
KM-20L2 = system: KM-20L2
SR = system: SR
SW-620 = system: SW-620
OVCAR-3 = system: OVCAR-3
MOLT-4 = system: MOLT-4
SN12C = system: SN12C
K562 = system: K562
OVCAR-8 = system: OVCAR-8
NCI-H226 = system: NCI-H226
UO-31 = system: UO-31
NCI-H460 = system: NCI-H460
CAKI-1 = system: CAKI-1
786-0 = system: 786-0
CCRF-CEM = system: CCRF-CEM
M19-MEL = system: M19-MEL
IGROV-1 = system: IGROV-1
SF-295 = system: SF-295
A498 = system: A498
UACC-257 = system: UACC-257
EKVX = system: EKVX
UACC-62 = system: UACC-62
OVCAR-4 = system: OVCAR-4
SF-268 = system: SF-268
HCT-116 = system: HCT-116
SNB-78 = system: SNB-78
M14 = system: M14
SK-MEL-2 = system: SK-MEL-2
SNB-75 = system: SNB-75
HT-29 = system: HT-29
HOP-92 = system: HOP-92
U-251 = system: U-251
DLD-1 = system: DLD-1

## COc1cc(C2c3cc4c(cc3[C@@H](NCCCN3CCCC3=O)C3COC(=O)[C@H]23)OCO4)cc(OC)c1O (stereo not given in full)
ACHN
  GI50: 2.92 µM (inactive)
COLO 205
  GI50: 4.17 µM (inactive)
NCI-H23
  GI50: 0.515 µM (active)
HOP-18
  GI50: > 17.5 µM (inactive)
SF-539
  GI50: 0.393 µM (active)
NCI-H522
  GI50: 0.319 µM (active)
Malme-3M
  GI50: 0.405 µM (active)

## Oc1c(C(Nc2cccc3cccnc23)c2ccccc2)ccc2cccnc12 (stereo not given)
RPMI-8226
  GI50: 3.88 µM (inactive)
HL-60
  GI50: 2.2 µM (inactive)
HOP-62
  GI50: 9.64 µM (inactive)
SNB-19
  GI50: 4.69 µM (inactive)
KM12
  GI50: 7.41 µM (inactive)
A549
  GI50: 6.04 µM (inactive)
HCC 2998
  GI50: 14.2 µM (inactive)
ACHN
  GI50: 3.91 µM (inactive)
COLO 205
  GI50: 6.25 µM (inactive)
LXFL 529
  GI50: 4.13 µM (inactive)
DMS-273
  GI50: 5.16 µM (inactive)
DMS-114
  GI50: 2.65 µM (inactive)
OVCAR-5
  GI50: 12.9 µM (inactive)
LOX IMVI
  GI50: 3.94 µM (inactive)
KM-20L2
  GI50: 3.77 µM (inactive)
SR
  GI50: 2.61 µM (inactive)
SW-620
  GI50: 4.05 µM (inactive)
OVCAR-3
  GI50: 5.77 µM (inactive)
NCI-H23
  GI50: 5.43 µM (inactive)
MOLT-4
  GI50: 1.9 µM (inactive)
HOP-18
  GI50: 4.78 µM (inactive)
SN12C
  GI50: 9.48 µM (inactive)
K562
  GI50: 3.32 µM (inactive)
SF-539
  GI50: 3.65 µM (inactive)
OVCAR-8
  GI50: 3.72 µM (inactive)
NCI-H226
  GI50: 1.73 µM (inactive)
UO-31
  GI50: 4.11 µM (inactive)
NCI-H460
  GI50: 3.33 µM (inactive)
NCI-H522
  GI50: 16.8 µM (inactive)
CAKI-1
  GI50: 5.6 µM (inactive)
786-0
  GI50: 4.07 µM (inactive)
CCRF-CEM
  GI50: 1.57 µM (inactive)
M19-MEL
  GI50: 5.53 µM (inactive)
Malme-3M
  GI50: 3.49 µM (inactive)
IGROV-1
  GI50: 8.04 µM (inactive)
SF-295
  GI50: 3.87 µM (inactive)
A498
  GI50: 22.6 µM (inactive)
UACC-257
  GI50: 4.38 µM (inactive)
EKVX
  GI50: 4.84 µM (inactive)
UACC-62
  GI50: 21.6 µM (inactive)
OVCAR-4
  GI50: 17.5 µM (inactive)
SF-268
  GI50: 4.21 µM (inactive)
HCT-116
  GI50: 5.6 µM (inactive)

## O/N=C(\c1ccccc1)N1CCCCC1
SNB-78
  GI50: > 100 µM (inactive)
HL-60
  GI50: > 100 µM (inactive)
HOP-62
  GI50: 92.3 µM (inactive)
SNB-19
  GI50: > 100 µM (inactive)
KM12
  GI50: > 100 µM (inactive)
A549
  GI50: > 100 µM (inactive)
HCC 2998
  GI50: > 100 µM (inactive)
COLO 205
  GI50: > 100 µM (inactive)
M14
  GI50: > 100 µM (inactive)
LXFL 529
  GI50: > 100 µM (inactive)
DMS-273
  GI50: > 100 µM (inactive)
DMS-114
  GI50: > 100 µM (inactive)
OVCAR-5
  GI50: > 100 µM (inactive)
LOX IMVI
  GI50: > 100 µM (inactive)
KM-20L2
  GI50: > 100 µM (inactive)
SK-MEL-2
  GI50: > 100 µM (inactive)
SR
  GI50: > 100 µM (inactive)
SW-620
  GI50: > 100 µM (inactive)
OVCAR-3
  GI50: > 100 µM (inactive)
SNB-75
  GI50: 82.8 µM (inactive)
NCI-H23
  GI50: > 100 µM (inactive)
HOP-18
  GI50: < 0.01 µM (active)
SN12C
  GI50: > 100 µM (inactive)
SF-539
  GI50: > 100 µM (inactive)
OVCAR-8
  GI50: > 100 µM (inactive)
HT-29
  GI50: > 100 µM (inactive)
HOP-92
  GI50: > 100 µM (inactive)
UO-31
  GI50: 66.5 µM (inactive)
U-251
  GI50: > 100 µM (inactive)
NCI-H460
  GI50: > 100 µM (inactive)
NCI-H522
  GI50: > 100 µM (inactive)
CAKI-1
  GI50: > 100 µM (inactive)
786-0
  GI50: > 100 µM (inactive)
Malme-3M
  GI50: 4.19 µM (inactive)
SF-295
  GI50: > 100 µM (inactive)
UACC-257
  GI50: > 100 µM (inactive)
OVCAR-4
  GI50: > 100 µM (inactive)
SF-268
  GI50: > 100 µM (inactive)
DLD-1
  GI50: > 100 µM (inactive)
HCT-116
  GI50: > 100 µM (inactive)
